Tested on: MV-4-11 cells
Assay: Gene expression microarray analysis (Affymetrix PrimeView) and GSEA
Type: cell-based, human
Set-up: RFU PODN (11730768_x_at) / Fold change /veh PODN (11730768_x_at) / RFU LINC00158 (11744669_a_at) / Fold change /veh LINC00158 (11744669_a_at) / RFU DUSP10 (11751237_a_at) / Fold change /veh DUSP10 (11751237_a_at) / RFU ID3 (11757404_x_at) / Fold change /veh ID3 (11757404_x_at) / RFU PLEKHG5 (11737974_s_at) / Fold change /veh PLEKHG5 (11737974_s_at) / RFU LRRC4B (11730491_at) / Fold change /veh LRRC4B (11730491_at) / RFU GIMAP4 (11747438_a_at) / Fold change /veh GIMAP4 (11747438_a_at) / RFU KRT8 (11758183_x_at) / Fold change /veh KRT8 (11758183_x_at) / RFU CNN1 (11734310_a_at) / Fold change /veh CNN1 (11734310_a_at) / RFU VPS37D (11726825_at) / Fold change /veh VPS37D (11726825_at) / RFU C10orf10 (11716522_x_at) / Fold change /veh C10orf10 (11716522_x_at) / RFU KIR2DL2 /// KIR2DL4 /// KIR2DL5A /// KIR2DL5B /// KIR2DS1 /// KIR2DS2 /// KIR2DS3 /// KIR2DS4 /// KIR3DL3 /// KIR3DL3 /// KIR3DS1 (11738374_at) / Fold change /veh KIR2DL2 /// KIR2DL4 /// KIR2DL5A /// KIR2DL5B /// KIR2DS1 /// KIR2DS2 /// KIR2DS3 /// KIR2DS4 /// KIR3DL3 /// KIR3DL3 /// KIR3DS1 (11738374_at) / RFU C1QL1 (11718748_at) / Fold change /veh C1QL1 (11718748_at) / RFU TMPRSS4 (11747572_a_at) / Fold change /veh TMPRSS4 (11747572_a_at) / RFU HAMP (11756126_x_at) / Fold change /veh HAMP (11756126_x_at) / RFU RNFT2 (11725882_a_at) / Fold change /veh RNFT2 (11725882_a_at) / RFU NR4A2 (11747474_a_at) / Fold change /veh NR4A2 (11747474_a_at) / RFU ABCC12 (11746883_a_at) / Fold change /veh ABCC12 (11746883_a_at) / RFU TMEM136 (11760407_x_at) / Fold change /veh TMEM136 (11760407_x_at) / RFU CLDN22 /// WWC2 (11732394_at) / Fold change /veh CLDN22 /// WWC2 (11732394_at) / RFU HLA-DPB1 (11760878_x_at) / Fold change /veh HLA-DPB1 (11760878_x_at) / RFU SPINT1 (11716480_a_at) / Fold change /veh SPINT1 (11716480_a_at) / RFU GAP43 (11754022_s_at) / Fold change /veh GAP43 (11754022_s_at) / RFU A4GNT (11735810_at) / Fold change /veh A4GNT (11735810_at) / RFU PRB3 (11715151_x_at) / Fold change /veh PRB3 (11715151_x_at) / RFU TUBB4B (11761932_at) / Fold change /veh TUBB4B (11761932_at) / RFU CAPN14 (11732068_a_at) / Fold change /veh CAPN14 (11732068_a_at) / RFU TMCC2 (11721928_a_at) / Fold change /veh TMCC2 (11721928_a_at) / RFU IRGQ (11745062_a_at) / Fold change /veh IRGQ (11745062_a_at) / RFU FAM174B (11720279_a_at) / Fold change /veh FAM174B (11720279_a_at) / RFU TMPRSS4 (11748680_a_at) / Fold change /veh TMPRSS4 (11748680_a_at) / RFU FAM212B (11763350_a_at) / Fold change /veh FAM212B (11763350_a_at) / RFU PLEKHG5 (11743358_a_at) / Fold change /veh PLEKHG5 (11743358_a_at) / RFU ZSCAN30 (11745921_a_at) / Fold change /veh ZSCAN30 (11745921_a_at) / RFU CMKLR1 (11741424_a_at) / Fold change /veh CMKLR1 (11741424_a_at) / RFU LOC101060620 /// MAPK8IP1 (11723275_at) / Fold change /veh LOC101060620 /// MAPK8IP1 (11723275_at) / RFU SPTSSB (11747773_x_at) / Fold change /veh SPTSSB (11747773_x_at) / RFU PRSS12 (11739890_at) / Fold change /veh PRSS12 (11739890_at) / RFU BIN1 (11741810_x_at) / Fold change /veh BIN1 (11741810_x_at) / RFU WNT11 (11732464_a_at) / Fold change /veh WNT11 (11732464_a_at) / RFU C10orf10 (11716521_a_at) / Fold change /veh C10orf10 (11716521_a_at) / RFU C5orf56 (11738089_at) / Fold change /veh C5orf56 (11738089_at) / RFU CYB561 (11721691_x_at) / Fold change /veh CYB561 (11721691_x_at) / RFU ANKRD19P (11752326_a_at) / Fold change /veh ANKRD19P (11752326_a_at) / RFU OR2T12 /// OR2T33 /// OR2T8 (11738714_s_at) / Fold change /veh OR2T12 /// OR2T33 /// OR2T8 (11738714_s_at) / RFU VCAN (11748164_a_at) / Fold change /veh VCAN (11748164_a_at) / RFU JSRP1 (11732532_at) / Fold change /veh JSRP1 (11732532_at) / RFU KRTAP10-11 (11738290_x_at) / Fold change /veh KRTAP10-11 (11738290_x_at) / RFU MYO3A (11730013_a_at) / Fold change /veh MYO3A (11730013_a_at) / RFU EBF3 (11725865_a_at) / Fold change /veh EBF3 (11725865_a_at) / RFU CAMK2N1 (11719241_x_at) / Fold change /veh CAMK2N1 (11719241_x_at) / RFU C5orf56 (11738088_a_at) / Fold change /veh C5orf56 (11738088_a_at) / RFU OLFML3 (11715873_a_at) / Fold change /veh OLFML3 (11715873_a_at) / RFU LOC100653217 /// NTM (11731650_a_at) / Fold change /veh LOC100653217 /// NTM (11731650_a_at) / RFU MAPK11 (11762145_a_at) / Fold change /veh MAPK11 (11762145_a_at) / RFU FIZ1 (11724087_x_at) / Fold change /veh FIZ1 (11724087_x_at) / RFU OASL (11726364_x_at) / Fold change /veh OASL (11726364_x_at) / RFU SOX15 (11748057_x_at) / Fold change /veh SOX15 (11748057_x_at) / RFU CD79A (11719716_a_at) / Fold change /veh CD79A (11719716_a_at) / RFU HIST1H1D (11736915_at) / Fold change /veh HIST1H1D (11736915_at) / RFU CASKIN2 (11723855_a_at) / Fold change /veh CASKIN2 (11723855_a_at) / RFU LOC730098 (11760151_x_at) / Fold change /veh LOC730098 (11760151_x_at) / RFU OR4N2 (11742367_at) / Fold change /veh OR4N2 (11742367_at) / RFU PRRT2 (11749266_a_at) / Fold change /veh PRRT2 (11749266_a_at) / RFU SNX32 (11753110_a_at) / Fold change /veh SNX32 (11753110_a_at) / RFU CDHR5 (11726645_a_at) / Fold change /veh CDHR5 (11726645_a_at) / RFU RCAN1 (11760418_a_at) / Fold change /veh RCAN1 (11760418_a_at) / RFU FAM167A (11723789_a_at) / Fold change /veh FAM167A (11723789_a_at) / RFU FAM26E (11764081_at) / Fold change /veh FAM26E (11764081_at) / RFU ISYNA1 (11749810_s_at) / Fold change /veh ISYNA1 (11749810_s_at) / RFU ACY1 (11761880_at) / Fold change /veh ACY1 (11761880_at) / RFU 11764098_at / Fold change /veh 11764098_at / RFU SAMD14 (11745864_x_at) / Fold change /veh SAMD14 (11745864_x_at) / RFU NPB (11741838_a_at) / Fold change /veh NPB (11741838_a_at) / RFU TMPRSS6 (11731388_a_at) / Fold change /veh TMPRSS6 (11731388_a_at) / RFU KRTAP10-2 (11738614_at) / Fold change /veh KRTAP10-2 (11738614_at) / RFU ARHGAP8 /// PRR5-ARHGAP8 (11727945_x_at) / Fold change /veh ARHGAP8 /// PRR5-ARHGAP8 (11727945_x_at) / RFU KRTAP5-7 /// NADSYN1 (11734609_at) / Fold change /veh KRTAP5-7 /// NADSYN1 (11734609_at) / RFU RASL12 (11751679_a_at) / Fold change /veh RASL12 (11751679_a_at) / RFU CDKN2B (11736163_a_at) / Fold change /veh CDKN2B (11736163_a_at) / RFU PRF1 (11729649_at) / Fold change /veh PRF1 (11729649_at) / RFU, ZNF638 /// ZNF638-IT1 / Fold change vs veh, ZNF638 /// ZNF638-IT1 / RFU, PANK3 / Fold change vs veh, PANK3 / RFU, SH3YL1 / Fold change vs veh, SH3YL1 / RFU, ZEB2 / Fold change vs veh, ZEB2 / RFU, NRIP1 / Fold change vs veh, NRIP1 / RFU, PTTG1IP / Fold change vs veh, PTTG1IP / RFU, CAPN2 / Fold change vs veh, CAPN2 / RFU, MED14 / Fold change vs veh, MED14 / RFU, SNORA58 / Fold change vs veh, SNORA58 / RFU, C1orf63 / Fold change vs veh, C1orf63 / RFU, LRRFIP1 / Fold change vs veh, LRRFIP1 / RFU, NDUFAF7 / Fold change vs veh, NDUFAF7 / RFU, SLC12A2 / Fold change vs veh, SLC12A2 / RFU, IBTK / Fold change vs veh, IBTK / RFU, ESF1 / Fold change vs veh, ESF1 / Fold change vs veh, TMEM50B / RFU, TAOK1 / Fold change vs veh, TAOK1 / RFU, ACBD3 / Fold change vs veh, ACBD3 / RFU, TMA16 / Fold change vs veh, TMA16 / RFU, RWDD3 / Fold change vs veh, RWDD3 / RFU, BCAT1 / Fold change vs veh, BCAT1 / RFU, EDEM3 / Fold change vs veh, EDEM3 / RFU, TMEM33 / Fold change vs veh, TMEM33 / RFU, WDR75 / Fold change vs veh, WDR75 / RFU, AHCTF1 / Fold change vs veh, AHCTF1 / RFU, TFRC / Fold change vs veh, TFRC / RFU, ZDHHC17 / Fold change vs veh, ZDHHC17 / RFU, NOM1 / Fold change vs veh, NOM1 / RFU, ARL8B / Fold change vs veh, ARL8B / RFU, ZBTB11 / Fold change vs veh, ZBTB11 / RFU, TAMM41 / Fold change vs veh, TAMM41 / RFU, KIAA1704 /// LOC100996395 / Fold change vs veh, KIAA1704 /// LOC100996395 / RFU, ING1 / Fold change vs veh, ING1 / RFU, TRMT61B / Fold change vs veh, TRMT61B / RFU, FUBP3 / Fold change vs veh, FUBP3 / RFU, TP53 / Fold change vs veh, TP53 / RFU, TNKS2 / Fold change vs veh, TNKS2 / RFU, ZFP14 / Fold change vs veh, ZFP14 / RFU, ACTR2 / Fold change vs veh, ACTR2 / RFU, PPP3R1 / Fold change vs veh, PPP3R1 / RFU, PIK3R1 / Fold change vs veh, PIK3R1 / RFU, HNRNPA1 / Fold change vs veh, HNRNPA1 / RFU, RNF170 / Fold change vs veh, RNF170 / RFU, ZNF28 / Fold change vs veh, ZNF28 / RFU, RNGTT / Fold change vs veh, RNGTT / RFU, OGT / Fold change vs veh, OGT / RFU, BRD1 / Fold change vs veh, BRD1 / RFU, MARS / Fold change vs veh, MARS / RFU, ZNF655 / Fold change vs veh, ZNF655 / RFU, FAHD1 / Fold change vs veh, FAHD1 / RFU, BDP1 / Fold change vs veh, BDP1 / RFU, LRRCC1 / Fold change vs veh, LRRCC1 / RFU, ARID1A / Fold change vs veh, ARID1A / RFU, ZNF146 / Fold change vs veh, ZNF146 / RFU, ZNF330 / Fold change vs veh, ZNF330 / RFU, GPN3 / Fold change vs veh, GPN3 / RFU, C9orf123 / Fold change vs veh, C9orf123 / RFU, N4BP2L2 / Fold change vs veh, N4BP2L2 / RFU, ARFIP1 / Fold change vs veh, ARFIP1 / RFU, FAM179B / Fold change vs veh, FAM179B / RFU, BCL10 / Fold change vs veh, BCL10 / RFU, UHRF1BP1L / Fold change vs veh, UHRF1BP1L / RFU, BET1 / Fold change vs veh, BET1 / RFU, CNOT2 / Fold change vs veh, CNOT2 / RFU, ZNF268 / Fold change vs veh, ZNF268 / Fold change vs veh, ZNF507 / RFU, DGCR2 / Fold change vs veh, DGCR2 / RFU, WDSUB1 / Fold change vs veh, WDSUB1 / Fold change vs veh, HSP90B1 /// MIR3652 / RFU, ADSS / Fold change vs veh, ADSS / RFU, GK / Fold change vs veh, GK / RFU, ZNF148 / Fold change vs veh, ZNF148 / RFU, TAF9 / Fold change vs veh, TAF9 / RFU, SLC1A5 / Fold change vs veh, SLC1A5 / RFU, SLMO2 / Fold change vs veh, SLMO2 / RFU, ABCC4 / Fold change vs veh, ABCC4 / RFU, LOC101060439 /// RAP1B / Fold change vs veh, LOC101060439 /// RAP1B / RFU, RFX7 / Fold change vs veh, RFX7 / RFU, GTPBP10 / Fold change vs veh, GTPBP10 / RFU, CNEP1R1 / Fold change vs veh, CNEP1R1 / RFU, BIVM-ERCC5 /// ERCC5 / Fold change vs veh, BIVM-ERCC5 /// ERCC5 / RFU, ILF3 / Fold change vs veh, ILF3 / RFU 11762660_at / Fold change /veh 11762660_at / RFU VCAN (11757783_s_at) / Fold change /veh VCAN (11757783_s_at) / RFU DDX43 (11728927_at) / Fold change /veh DDX43 (11728927_at) / RFU KRT8 (11758188_x_at) / Fold change /veh KRT8 (11758188_x_at) / RFU NKD1 (11759106_at) / Fold change /veh NKD1 (11759106_at) / RFU SRD5A1 (11742802_a_at) / Fold change /veh SRD5A1 (11742802_a_at) / RFU TPSAB1 /// TPSB2 (11721975_s_at) / Fold change /veh TPSAB1 /// TPSB2 (11721975_s_at) / RFU GSTM3 (11746129_a_at) / Fold change /veh GSTM3 (11746129_a_at) / RFU IL23R (11737362_x_at) / Fold change /veh IL23R (11737362_x_at) / RFU TMEM51 (11727254_a_at) / Fold change /veh TMEM51 (11727254_a_at) / RFU PIWIL2 (11732686_x_at) / Fold change /veh PIWIL2 (11732686_x_at) / RFU ORM1 (11744905_x_at) / Fold change /veh ORM1 (11744905_x_at) / RFU CCDC152 (11743942_at) / Fold change /veh CCDC152 (11743942_at) / RFU ECM1 (11717891_a_at) / Fold change /veh ECM1 (11717891_a_at) / RFU IL23R (11748794_a_at) / Fold change /veh IL23R (11748794_a_at) / RFU TNFAIP8L3 (11732012_x_at) / Fold change /veh TNFAIP8L3 (11732012_x_at) / RFU MBOAT4 (11741988_at) / Fold change /veh MBOAT4 (11741988_at) / RFU 11764193_at / Fold change /veh 11764193_at / RFU TMEM53 (11763286_at) / Fold change /veh TMEM53 (11763286_at) / RFU MAGEB2 (11727129_at) / Fold change /veh MAGEB2 (11727129_at) / RFU TMEM200A (11744735_a_at) / Fold change /veh TMEM200A (11744735_a_at) / RFU CCDC152 (11751479_a_at) / Fold change /veh CCDC152 (11751479_a_at) / RFU FAM211A (11726209_a_at) / Fold change /veh FAM211A (11726209_a_at) / RFU RGS16 (11746705_a_at) / Fold change /veh RGS16 (11746705_a_at) / RFU VCAN (11755009_s_at) / Fold change /veh VCAN (11755009_s_at) / RFU RHOB (11743442_s_at) / Fold change /veh RHOB (11743442_s_at) / RFU RGS16 (11720943_a_at) / Fold change /veh RGS16 (11720943_a_at) / RFU RGS16 (11720944_at) / Fold change /veh RGS16 (11720944_at) / RFU, VPS4B / Fold change vs veh, VPS4B / RFU, CREB1 / Fold change vs veh, CREB1 / RFU, DNAJC13 / Fold change vs veh, DNAJC13 / RFU, GNAQ / Fold change vs veh, GNAQ / RFU, CDK5R1 / Fold change vs veh, CDK5R1 / RFU, ZRANB3 / Fold change vs veh, ZRANB3 / RFU, CUL4A / Fold change vs veh, CUL4A / RFU, CCNY / Fold change vs veh, CCNY / RFU, UFL1 / Fold change vs veh, UFL1 / RFU, COG3 / Fold change vs veh, COG3 / RFU, DIAPH2 / Fold change vs veh, DIAPH2 / RFU, SKA2 / Fold change vs veh, SKA2 / RFU, AFF3 / Fold change vs veh, AFF3 / RFU, LMF1 / Fold change vs veh, LMF1 / RFU, IPO11 / Fold change vs veh, IPO11 / RFU, DFFB / Fold change vs veh, DFFB / RFU, FOXP1 / Fold change vs veh, FOXP1 / RFU, CARD8 / Fold change vs veh, CARD8 / RFU, STRN3 / Fold change vs veh, STRN3 / RFU, ADK / Fold change vs veh, ADK / RFU, RASSF2 / Fold change vs veh, RASSF2 / RFU, WIPF1 / Fold change vs veh, WIPF1 / RFU, LARP1B / Fold change vs veh, LARP1B / RFU, RASA1 / Fold change vs veh, RASA1 / RFU, RB1 / Fold change vs veh, RB1 / RFU, PPFIA1 / Fold change vs veh, PPFIA1 / RFU, MAT2A / Fold change vs veh, MAT2A / RFU, CCT5 / Fold change vs veh, CCT5 / RFU, WDR92 / Fold change vs veh, WDR92 / RFU, CUX1 / Fold change vs veh, CUX1 / RFU, TTC7A / Fold change vs veh, TTC7A / RFU, TMEM135 / Fold change vs veh, TMEM135 / RFU, DEPTOR / Fold change vs veh, DEPTOR / RFU, CPM / Fold change vs veh, CPM / RFU, DNAJB6 / Fold change vs veh, DNAJB6 / RFU, CACNA2D3 / Fold change vs veh, CACNA2D3 / RFU, DTX4 / Fold change vs veh, DTX4 / RFU, TFCP2 / Fold change vs veh, TFCP2 / RFU, GMCL1 /// GMCL1P1 / Fold change vs veh, GMCL1 /// GMCL1P1 / RFU, AEBP2 / Fold change vs veh, AEBP2 / RFU, SNHG1 /// SNORD22 /// SNORD25 /// SNORD26 /// SNORD27 /// SNORD28 /// SNORD29 /// SNORD31 / Fold change vs veh, SNHG1 /// SNORD22 /// SNORD25 /// SNORD26 /// SNORD27 /// SNORD28 /// SNORD29 /// SNORD31 / Fold change (Aza/veh), C12orf56 (ProbeSet 11735607_a_at) / Fold change (ACY-1035/veh), C12orf56 (ProbeSet 11735607_a_at) / Fold change (Aza/veh), FGFR1OP (ProbeSet 11751329_s_at) / Fold change (ACY-1035/veh), FGFR1OP (ProbeSet 11751329_s_at) / Fold change (Aza/veh), VPS36 (ProbeSet 11739960_a_at) / Fold change (ACY-1035/veh), VPS36 (ProbeSet 11739960_a_at) / RFU SYPL1 (11715823_x_at) / Fold change /veh SYPL1 (11715823_x_at) / RFU IGFBP7 (11715501_s_at) / Fold change /veh IGFBP7 (11715501_s_at) / RFU REEP3 (11722064_at) / Fold change /veh REEP3 (11722064_at) / RFU IGLL1 (11728026_x_at) / Fold change /veh IGLL1 (11728026_x_at): dose or concentration left out as unconfirmed
Conditions: ProbeSet 11753055_s_at; LIST B

SMILES: Nc1ncn([C@@H]2O[C@H](CO)[C@@H](O)[C@H]2O)c(=O)n1 [azacitidine]
- Fold change vs veh, LOC101060439 /// RAP1B: 0.86

Source: PMC5218480 (PLoS ONE, 2017)
